According to article PMC9227250, “Design, Synthesis and Cytotoxic Activity Evaluation of Newly Synthesized Amides-Based TMP Moiety as Potential Anticancer Agents over HepG2 Cells” (Molecules, 2022):

Key:
HDAC1 = biological target: T1, HDAC1 (Homo sapiens, UniProt Q13547); test: In vitro HDAC1 inhibition assay (ELISA kit); format: biochemical; settings: HepG2 cells exposed 72 h
T1 construct: Briefly, HepG2 cells were trypsinized, counted and seeded; host or cells: HepG2
Method: (§1) See Section 4.3.2 in Supplementary Data.
(§2) 4.3.1. Cytotoxic activity evaluation […]
(§3) for 24 h under 5% CO2. After incubation, the cells were treated with different concentrations of the test schiff bases 2-6e and incubated for 24 h, then 20 µl of MTT […]
(§4) (DMSO) in volume of 100 µl was added to each well to dissolve the purple formazan that had formed. The color intensity of the formazan product, which represents the […]
(§5) USA) at 450 nm absorbance. The experimental conditions were carried out with at least three replicates, and the experiments were repeated at least three times.
(§6) 4.3.2. In vitro HDAC inhibition assay
(§7) HDAC isoforms (HDAC1, 2) were measured using ELISA assay kits {Mybiosource, Inc. [#MBS2020012 and #MBS2510971]} according to manufacturer's directions.
(§8) 96-well micro titer plates. Cells then were incubated in a humidified atmosphere at 37 °C for 24 h. The standards, the tested compounds, and the positive reference SAHA were diluted to designated concentrations. On the 96-well micro titer plates standard or sample was added to each well in 100 µL, and incubated at 37 °C for 2 h. The solution was aspirated and 100 µL of prepared. Detection Reagent A was added to […]
4.3.3. […]
(§9) The samples were immediately analyzed using Facs Calibur flow cytometer (Becton and Dickinson, Heidelberg, Germany). […]
(§10) immediately analyzed using FACS Calibur flow cytometer (Becton and Dickinson, […]

HL-7702 cells = test: MTT cytotoxicity assay against normal liver cell line HL-7702; format: cell-based, human
Method: (§11) Cytotoxic activity was carried out using MTT colorimetric antiproliferative assay to investigate the effect of the prepared molecules on HepG2 as well as HL-7702 cell lines. See Section 4.3.1 in Supplementary Data.
(§12) 4.3.1. Cytotoxic activity evaluation
(§13) To measure the cytotoxic actvity of the amide derivatives 2-6e in hepatocellular carcinoma (HepG2) cell line (ATCC Cat No. HB-8065) as well as normal human liver cell line HL-7702 (ATCC Cat. No. 77402), cell viability assay was assessed using MTT assay method. Cells at density of 1 x 104 were seeded in a 96-well plate at 37 °C for 24 h under 5% CO2. After incubation, the cells were treated with different concentrations of the test schiff bases 2-6e and incubated for 24 h, then 20 µl of MTT solution at 5 mg/mL was applied and incubated for 4 h at 37 °C . Dimethyl sulphoxide (DMSO) in volume of 100 µl was added to each well to dissolve the purple formazan that had formed. The color intensity of the formazan product, which represents the growth condition of the cells, is quantified by using an ELISA plate reader (EXL 800, USA) at 450 nm absorbance. The experimental conditions were carried out with at least three replicates, and the experiments were repeated at least three times. […]

HDAC2 = biological target: T2, HDAC2 (Homo sapiens, UniProt Q92769); test: In vitro HDAC2 inhibition assay (ELISA kit); format: biochemical; settings: HepG2 cells exposed 72 h
T2 construct: Briefly, HepG2 cells were trypsinized, counted and seeded; host or cells: HepG2
Method: as §1, §2, §3, §4, §5, §6, §7, §8
4.3.3. […]
as §9, §10

β-tubulin = biological target: T3, β-tubulin (Homo sapiens, UniProt P07437+P68363); test: Tubulin polymerization inhibition assay (Human Beta-tubulin ELISA kit); format: biochemical
T3 construct: […]
Method: See Section 4.3.3 in Supplementary Data.
4.3.3. Tubulin inhibitions Assay […]
manufacturer’s instructions using # abcam Human Beta-tubulin simplestep ELISA Kit […]
Cell cycle analysis in HepG2 cells was investigated using fluorescent Annexin V - FITC/ PI detection kit (BioVision EZCellTM Cell Cycle Analysis Kit Catalog #K920) […]
After treatment, cells were washed twice in PBS, fixed in 70% ethanol, rinsed again with PBS. Cells were collected by centrifugation at 2000 rpm for 5 min and stained with DNA […]
The samples were immediately analyzed using Facs Calibur flow cytometer (Becton and Dickinson, Heidelberg, Germany).
Apoptosis in HepG2 cells was investigated using fluorescent Annexin V-FITC/ PI detection kit (BioVision Annexin V-FITC Apoptosis Detection Kit, Catalog #: K101) […]
as §10
Caspase 3/7 in HepG2 cells was investigated using CellEvent® Caspase 3/7 Green Detection Flow Cytometry Assay Kit. Caspase 3/7 activity in HepG2 cell line was […]
CellEvent® caspase 3/7 green detection flow cytometry assay kit according to manufacturer’s directions. […]
harvested and washed with ice cold PBS, and cell lysates were prepared and […]

HepG2 cells [1] = test: MTT cytotoxicity assay against HepG2 cell line; format: cell-based; settings: Homo sapiens, mean of three independent replicates ± SE
Method: as §11, §12, §13

HepG2 cells [2] = test: Cell cycle analysis by flow cytometry (PI); format: cell-based, human; settings: HepG2, IC50 dose, 48 h; untreated control 7.28%
Source text: Inhibition of tubulin assembly into microtubule and the antiproliferative effects are characterized by cell cycle arrest in the G2/M phase. […] The results in this study indicate that the newly prepared tetraamide derivative 6a cause cell cycle perturbation in the G2/M phase which is the main gauge of HDAC and tubulin inhibitors confirming the mode of action under study.
Cell cycle analysis in HepG2 cells was investigated using fluorescent Annexin V-FITC/ PI detection kit (BioVision EZCell^TM Cell Cycle Analysis Kit Catalog #K920) by flow cytometry assay. See Section 4.3.4 in Supplementary Data. […]
(§14) concentration that induces 50% of maximum inhibition of HDAC isoforms (IC50) […]
(§15) 4.3.3. Tubulin inhibitions Assay
(§16) Compound 6a was evaluated for its tubulin inhibitory activity according to manufacturer’s instructions using # abcam Human Beta-tubulin simplestep ELISA Kit […]
(§17) 4.3.4. Cell cycle analysis of compound 6a
Cell cycle analysis in HepG2 cells was investigated using fluorescent Annexin V - FITC/ PI detection kit (BioVision EZCellTM Cell Cycle Analysis Kit Catalog #K920) by flow cytometry assay. HepG2 cells at a density of 2 × 10^5 per well were treated with compound 6a at its IC50 concentration for 48 h. […] The samples were immediately analyzed using Facs Calibur flow cytometer (Becton and Dickinson, Heidelberg, Germany). […]

HepG2 cells [3] = test: Annexin V-FITC/PI apoptosis assay; format: cell-based, human; settings: HepG2, IC50 concentration, 48 h
Method: G2/M blockade is often followed by cellular apoptosis. To quantify the percentage of cellular apoptosis induced by compound 6a in HepG2 cells, Annexin V fluorescein isothiocyanate versus propidium iodide (PI) dual staining analysis was performed after treatment with compound 6a at its IC50 concentration for 48 h. The results were presented graphically in Figure 5. […] Therefore, it can be concluded that compound 6a can be considered as apoptotic inducer.
Apoptosis in HepG2 cells was investigated using fluorescent Annexin V-FITC/ PI detection kit (BioVision Annexin V-FITC Apoptosis Detection Kit, Catalog #: K101) by flow cytometry assay. See Section 4.3.5 in Supplementary Data. […]
as §14, §15, §16, §17
Cell cycle analysis in HepG2 cells was investigated using fluorescent Annexin V - FITC/ PI detection kit (BioVision EZCellTM Cell Cycle Analysis Kit Catalog #K920) by flow cytometry assay. HepG2 cells at a density of 2 × 10^5 per well were treated with compound 6a at its IC50 concentration for 48 h. After treatment, cells were washed twice in PBS, fixed in 70% ethanol, rinsed again with PBS. Cells were collected by centrifugation at 2000 rpm for 5 min and stained with DNA fluorochrome PI for 15 min at 37 °C in dark. The samples were immediately analyzed using Facs Calibur flow cytometer (Becton and Dickinson, Heidelberg, Germany).
4.3.5. Apoptosis assay for compound 6a […]
Caspase 3/7 in HepG2 cells was investigated using CellEvent® Caspase 3/7 Green Detection Flow Cytometry Assay Kit. Caspase 3/7 activity in HepG2 cell line was detected in the presence of compounds 6a at its IC50 concentration (µM) using CellEvent® caspase 3/7 green detection flow cytometry assay kit according to manufacturer’s directions. […]

T3 sequence (P07437 whole entry): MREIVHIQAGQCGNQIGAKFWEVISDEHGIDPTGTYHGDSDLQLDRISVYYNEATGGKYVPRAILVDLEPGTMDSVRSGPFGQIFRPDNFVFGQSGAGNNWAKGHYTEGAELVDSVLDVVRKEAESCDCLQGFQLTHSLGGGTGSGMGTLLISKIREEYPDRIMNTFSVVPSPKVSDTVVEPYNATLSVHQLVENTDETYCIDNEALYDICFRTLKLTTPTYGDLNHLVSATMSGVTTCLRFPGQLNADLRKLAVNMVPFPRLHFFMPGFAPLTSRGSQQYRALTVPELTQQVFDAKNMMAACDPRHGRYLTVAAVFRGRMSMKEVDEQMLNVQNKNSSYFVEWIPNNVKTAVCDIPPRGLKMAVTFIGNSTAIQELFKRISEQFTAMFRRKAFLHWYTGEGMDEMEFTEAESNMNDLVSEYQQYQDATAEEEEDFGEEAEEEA
T3 sequence (P68363 whole entry): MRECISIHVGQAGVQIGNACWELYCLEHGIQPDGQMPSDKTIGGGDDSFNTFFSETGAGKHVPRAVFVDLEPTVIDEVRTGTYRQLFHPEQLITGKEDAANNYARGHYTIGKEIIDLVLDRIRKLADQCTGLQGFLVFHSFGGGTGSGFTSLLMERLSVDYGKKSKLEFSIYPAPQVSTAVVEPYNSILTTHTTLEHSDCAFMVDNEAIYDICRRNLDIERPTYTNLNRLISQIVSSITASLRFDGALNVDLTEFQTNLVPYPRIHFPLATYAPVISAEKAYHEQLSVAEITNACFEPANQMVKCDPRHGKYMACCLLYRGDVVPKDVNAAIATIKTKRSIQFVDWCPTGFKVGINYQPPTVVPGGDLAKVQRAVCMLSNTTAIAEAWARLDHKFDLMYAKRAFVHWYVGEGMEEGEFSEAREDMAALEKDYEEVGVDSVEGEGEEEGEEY
T2 sequence (Q92769 whole entry): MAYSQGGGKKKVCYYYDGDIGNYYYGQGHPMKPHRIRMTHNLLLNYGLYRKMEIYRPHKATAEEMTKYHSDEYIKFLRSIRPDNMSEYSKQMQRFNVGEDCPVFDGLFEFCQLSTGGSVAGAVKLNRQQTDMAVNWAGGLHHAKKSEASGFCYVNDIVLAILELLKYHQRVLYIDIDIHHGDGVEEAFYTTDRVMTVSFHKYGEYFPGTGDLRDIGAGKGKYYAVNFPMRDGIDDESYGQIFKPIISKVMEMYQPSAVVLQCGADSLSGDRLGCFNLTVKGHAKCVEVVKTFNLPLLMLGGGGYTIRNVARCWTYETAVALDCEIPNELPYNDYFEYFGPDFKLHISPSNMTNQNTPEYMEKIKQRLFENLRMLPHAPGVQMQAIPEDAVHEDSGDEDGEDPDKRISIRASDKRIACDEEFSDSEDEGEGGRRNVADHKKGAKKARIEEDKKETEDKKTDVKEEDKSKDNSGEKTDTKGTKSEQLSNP
T1 sequence (Q13547 whole entry): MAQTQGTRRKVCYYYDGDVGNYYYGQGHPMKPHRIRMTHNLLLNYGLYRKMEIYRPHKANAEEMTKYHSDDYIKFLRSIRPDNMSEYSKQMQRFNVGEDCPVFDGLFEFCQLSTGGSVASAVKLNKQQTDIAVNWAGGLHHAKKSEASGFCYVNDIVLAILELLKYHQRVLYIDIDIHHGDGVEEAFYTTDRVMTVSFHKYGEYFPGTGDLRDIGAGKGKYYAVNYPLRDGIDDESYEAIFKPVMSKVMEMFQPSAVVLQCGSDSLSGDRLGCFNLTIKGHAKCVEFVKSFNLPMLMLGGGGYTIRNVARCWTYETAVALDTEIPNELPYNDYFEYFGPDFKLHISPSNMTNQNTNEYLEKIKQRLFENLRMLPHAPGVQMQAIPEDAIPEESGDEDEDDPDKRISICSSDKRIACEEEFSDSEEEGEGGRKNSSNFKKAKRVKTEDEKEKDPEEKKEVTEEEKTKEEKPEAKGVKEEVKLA

IC50 (HDAC1): 47 nM
IC50 (HDAC2): 86 nM
tubulin polymerization percentage inhibition (β-tubulin; ELISA for β-tubulin, compared with untreated control cells): 66.39%
IC50 (β-tubulin; β-tubulin ELISA): 270 nM
melting point: 209 to 211 °C
SMILES: COc1cc(C(=O)NC(=Cc2ccc(Cl)cc2)C(=O)NNC(=O)/C(=C/c2ccco2)NC(=O)c2cc(OC)c(OC)c(OC)c2)cc(OC)c1OC [Compound 6a, N-((1Z)-3-(2-(3-(4-chlorophenyl)-2-(3,4,5-trimethoxybenzamido)acryloyl)hydrazinyl)-1-(furan-2-yl)-3-oxoprop-1-en-2-yl)-3,4,5-trimethoxybenzamide]
selectivity ratio toward normal liver cell line (HL-7702 cells; HL-7702 (printed HL-7022) versus HepG2): 14.8
IC50 (HL-7702 cells; Homo sapiens, L02, MTT assay, normal liver cell line HL-7702, mean of three independent replicates ± SE): 9620 ± 230 nM
IC50 (HepG2 cells [1]): 650 ± 30 nM
cells in G2/M phase (HepG2 cells [2]): 39.09%
late apoptotic cell percentage (HepG2 cells [3]; untreated control 0.13%): 12.08%
early apoptotic cell percentage (HepG2 cells [3]; untreated control 0.52%): 23.41%
total apoptosis percentage (HepG2 cells [3]; untreated control 1.59%): 37.51%
